Values quoted from earlier work, collected in patent US12128121B2, “Compositions comprising organo-silanol compounds, and applications” (EXSYMOL, priority 2020, dated 2024).
Like-named read-outs stand apart in the source and are kept apart here.

C[Si](O)(O)O [CH3—Si(OH)3, monomethylsilanetriol]
concentration in water (as silicon, CH3—Si(OH)3): ~588 mg Si/I
concentration in water (limit before self-condensation): ~21 mM
